System: 24 h food-deprived Wistar rats
Experiment: Acute feeding study: cumulative food intake after i.p. or oral administration
Assay type: in vivo
Description: The experiments were performed on male Wistar rats weighing 300-350 g. The animals were housed individually under a 12 h light/dark cycle in a room with temperature and humidity control. The rats had ad libitum access to food and water, except during the feeding studies. Prior to the experiments, animals were acclimated to the handling.
For the acute feeding studies, the nanoemulsion G-F68 or Tween 20 were prepared in 5% in saline.
Regarding the acute studies with OEA, the drug was obtained from Tocris Bioscience (Bristol, UK). It was administered in a solution contained the nanoemulsion G-F68 (5%) and saline (95%) prepared in fresh the same day of the experiment. The doses tested were: • a) 1, 5 and 10 mg/kg of OEA for the intraperitoneal acute studies. The volume of the administration was 1 ml/kg. • b) 1, 10 and 50 mg/kg of OEA for the oral acute studies. The volume of the administration was 3 ml/kg.
The hypophagic actions of the N-acylethanolamine OEA were evaluated using the nanoemulsion G-F68 as delivery system (vehicle). For these experiments, we used animals habituated to the experimental protocols. To this end, 48 h before each experiment, the bedding was removed and replaced by small food containers into the cage for 4 h. After this initial phase, the animals were deprived of food for 24 h, but had free access to water. The different treatments were administered 15 min prior access to food. Animals were then returned to their home cages and a measured amount of food (30-40 g) was placed into the cages (t = 0 h). Food pellets were weighed at time intervals of 15, 30, 60, 120 and 240 min, and 24 h after the acute treatment.

In the case of `CCCCCCCC/C=C\CCCCCCCC(=O)NCCO` [OEA, N-oleoylethanolamine], the food intake (OEA 1 mg/kg oral (i.g., 3 ml/kg) in G-F68, vs G-F68 group, p<0.01 at 240 min) is reported as “significant decrease in food intake”, the food intake (OEA 5 mg/kg i.p. in G-F68 (5% in saline), vs nanoemulsion group, p<0.001 at 15 min, p<0.05 at 30 min) is reported as “significant reduction on food intake” and the food intake (OEA 10 mg/kg i.p. in G-F68 (5% in saline), vs nanoemulsion group, p<0.001 at 15, 30 and 60 min) is reported as “significant reduction on food intake”. The food intake (OEA 10 mg/kg oral (i.g., 3 ml/kg) in G-F68, vs G-F68 group, p<0.05 at 240 min) was “significant decrease in food intake”, the food intake (OEA 50 mg/kg oral (i.g., 3 ml/kg) in G-F68, vs G-F68 group, significant at 15, 30, 60, 120, 240 min and 24 h) was “significant decrease in food intake” and the food intake (OEA 50 mg/kg oral (i.g., 3 ml/kg) prepared in Tween 20, vs vehicle Tween 20 group, p<0.05) was “significant decrease in food intake only at 30 and 60 min”. For the same compound, the feeding (OEA 50 mg/kg oral (i.g., 3 ml/kg) within nanoemulsion G-F68, vs its vehicle group (Figure 7), 15 min to 24 h) was “prolonged and significant reduction of feeding at all times” and the cumulative food intake (OEA i.p., the different doses (1, 5, 10 mg/kg) in G-F68, 24 h after administration, vs vehicle group) was “no effects on cumulative food intake”.

Source: patent publication EP2985276A1, “FORMULATIONS BASED ON NANOEMULSIONS AND THE USE THEREOF FOR TREATING OBESITY” (Fundación Pública Andaluza Para La Investigación de Malaga …, priority 2013, dated 2014)
